{"source": "patent US20050234103A1", "about": "“Crystalline forms of rabeprazole sodium” (priority 2002, published 2005)", "conditions": "as compared to prazoles such as panto prazole sodium and omeprazole sodium"}
{"compound": "COCCCOc1ccnc(C[S+]([O-])c2nc3ccccc3[n-]2)c1C.[Na+]", "note": "(stereo not shown) [Form X, 2-[[[4-(3-methoxypropoxy)-3-methyl-2-pyridinyl]-methyl]sulfinyl]-1H-benzimidazole sodium]", "values": [{"measurement": "chemical stability such as thermo stability and light stability", "value": "better chemical stability"}]}
